“And” between values parts separate entries of the source, which are not always exact repeats. Identical values can stand only once. Like-named read-outs stand apart in the source and are kept apart here.
Legend:
Type in all cases: cell-based
[1] = target: T1, GluA1 AMPA receptors (Rattus norvegicus, UniProt P19490); experiment: TEVC on Xenopus oocytes, GluA1 AMPA receptors; settings: for Inhibition, individual values: GluA1, single cells
T1 construct: expressed in transfected cells; host or cells: Xenopus laevis oocytes (mRNA injection)
T1 sequence (P19490 19-907): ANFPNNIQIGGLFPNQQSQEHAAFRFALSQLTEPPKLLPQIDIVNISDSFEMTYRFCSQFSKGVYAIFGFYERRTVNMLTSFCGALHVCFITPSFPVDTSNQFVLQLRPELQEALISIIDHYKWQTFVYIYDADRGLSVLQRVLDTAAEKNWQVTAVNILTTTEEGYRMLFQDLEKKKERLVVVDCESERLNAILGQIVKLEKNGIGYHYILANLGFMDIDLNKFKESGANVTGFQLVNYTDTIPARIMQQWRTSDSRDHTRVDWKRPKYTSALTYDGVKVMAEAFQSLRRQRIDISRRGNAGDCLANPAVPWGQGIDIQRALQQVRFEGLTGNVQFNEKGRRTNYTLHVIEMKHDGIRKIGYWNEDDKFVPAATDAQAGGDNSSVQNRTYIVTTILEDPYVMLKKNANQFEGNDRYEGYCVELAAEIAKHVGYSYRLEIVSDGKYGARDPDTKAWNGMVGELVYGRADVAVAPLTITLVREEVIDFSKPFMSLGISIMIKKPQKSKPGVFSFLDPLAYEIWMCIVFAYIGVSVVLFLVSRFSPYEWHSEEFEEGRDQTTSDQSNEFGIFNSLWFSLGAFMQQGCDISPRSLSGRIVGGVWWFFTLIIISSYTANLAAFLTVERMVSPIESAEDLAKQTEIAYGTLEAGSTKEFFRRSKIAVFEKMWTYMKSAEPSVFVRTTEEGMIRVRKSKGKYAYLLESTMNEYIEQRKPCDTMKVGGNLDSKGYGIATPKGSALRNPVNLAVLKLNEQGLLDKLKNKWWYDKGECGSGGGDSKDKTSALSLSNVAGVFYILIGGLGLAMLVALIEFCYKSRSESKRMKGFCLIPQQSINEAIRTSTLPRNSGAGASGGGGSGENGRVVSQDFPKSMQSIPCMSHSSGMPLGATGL
Source text: (§1) We used cDNA coding for rat GluN1–1a (named GluN1 herein) (GenBank: U08261.1), rat GluN2A (GenBank: D13211.1), mouse GluN2B (GenBank: D10651.2), rat GluA1 flop (GenBank: M36418.2), and rat Myc-GluA2(Q)-flip (GenBank: AF164344.1) cloned into pcDNA3-based expression plasmids. GluK2 (GenBank: Z11548.1) corresponds to the fully RNA-edited version.[80] The GluN2B-ΔNTD construct is from ref[45] and GluN2B–N615K is from ref[81]. Single mutants GluN2B-Q110G and GluN1-L135H were from ref[19]. The GluA2 cDNA contains a Myc tag ([…]) fused between the signal peptide and the N-terminus sequences, and the GluA2 subunit is […] for its Q/R/N site (GluA2(Q)) to allow permeation of homomeric GluA2 receptors.[2] cDNAs coding for rat GluN2C (GenBank: M91563.1) and GluN2D subunits (GenBank: L31611.1) were in prK5 plasmids.
The expression of recombinant GluA1, GluA2(Q), and GluK2 receptors was obtained by oocyte injection of 50 nL of mRNAs (at 1 μg/μL). mRNAs were generated using the T7 (GluA1 and GluA2) and T3 (GluK2) mMessage mMachine transcription kits (Invitrogen) after cDNA linearization with the SacII restriction enzyme. The injected oocytes were stored in the same conditions as for NMDARs and used 72–96 h postinjection.
TEVC recordings were performed 1–3 days following injection. TEVC recordings were performed using an Oocyte Clamp amplifier OC-725 (Warner Instruments) and computer-controlled via a 1440A Digidata (Molecular Devices). Currents were sampled at 100 Hz and low-pass-filtered at 20 Hz using an 8-pole Bessel filter (900 Series, Frequency Devices Inc.). Data were collected with Clampfit 10.3. During the recording, the cells were continuously perfused with external recording Ringer solution at pH 7.3 (in mM: 100 NaCl, 0.3 BaCl2, 5 HEPES, and 2.5 KCl, pH adjustment to 7.3 by the addition of NaOH). The NMDA currents were induced by simultaneous application of L-glutamate and glycine (agonist solution) at saturating concentration (100 μM each), and DTPA (10 μM) to prevent receptor inhibition by ambient zinc (∼20 nM).[83] A control solution (100 μM glycine and 10 μM DTPA in Ringer pH 7.3) was used for washout of drug and test solutions. AMPA and kainate receptor currents were induced in the same conditions as NMDA currents (100 μM glutamate and glycine + 10 μM DTPA). Oocytes expressing GluK2 kainate receptors were treated with concanavalin A ([…], equivalent to 1.1 mg/mL) during 10 min before recording to decrease receptor desensitization. Unless notified, recordings were performed at a holding potential of −60 mV. All experiments were performed at room temperature. […]

[2] = target: T2, GluN1/GluN2C (Rattus norvegicus, UniProt P35439+Q00961); experiment: TEVC on Xenopus oocytes, GluN1/GluN2C diheteromers; settings: 1 µM trans-OptoNAM-3 (dark); listed as trans-OptoNAM-3
T2 construct: expressed in transfected cells; host or cells: Xenopus laevis oocytes (nuclear cDNA injection)
T2 sequence (Q00961 20-1237, other chains not shown): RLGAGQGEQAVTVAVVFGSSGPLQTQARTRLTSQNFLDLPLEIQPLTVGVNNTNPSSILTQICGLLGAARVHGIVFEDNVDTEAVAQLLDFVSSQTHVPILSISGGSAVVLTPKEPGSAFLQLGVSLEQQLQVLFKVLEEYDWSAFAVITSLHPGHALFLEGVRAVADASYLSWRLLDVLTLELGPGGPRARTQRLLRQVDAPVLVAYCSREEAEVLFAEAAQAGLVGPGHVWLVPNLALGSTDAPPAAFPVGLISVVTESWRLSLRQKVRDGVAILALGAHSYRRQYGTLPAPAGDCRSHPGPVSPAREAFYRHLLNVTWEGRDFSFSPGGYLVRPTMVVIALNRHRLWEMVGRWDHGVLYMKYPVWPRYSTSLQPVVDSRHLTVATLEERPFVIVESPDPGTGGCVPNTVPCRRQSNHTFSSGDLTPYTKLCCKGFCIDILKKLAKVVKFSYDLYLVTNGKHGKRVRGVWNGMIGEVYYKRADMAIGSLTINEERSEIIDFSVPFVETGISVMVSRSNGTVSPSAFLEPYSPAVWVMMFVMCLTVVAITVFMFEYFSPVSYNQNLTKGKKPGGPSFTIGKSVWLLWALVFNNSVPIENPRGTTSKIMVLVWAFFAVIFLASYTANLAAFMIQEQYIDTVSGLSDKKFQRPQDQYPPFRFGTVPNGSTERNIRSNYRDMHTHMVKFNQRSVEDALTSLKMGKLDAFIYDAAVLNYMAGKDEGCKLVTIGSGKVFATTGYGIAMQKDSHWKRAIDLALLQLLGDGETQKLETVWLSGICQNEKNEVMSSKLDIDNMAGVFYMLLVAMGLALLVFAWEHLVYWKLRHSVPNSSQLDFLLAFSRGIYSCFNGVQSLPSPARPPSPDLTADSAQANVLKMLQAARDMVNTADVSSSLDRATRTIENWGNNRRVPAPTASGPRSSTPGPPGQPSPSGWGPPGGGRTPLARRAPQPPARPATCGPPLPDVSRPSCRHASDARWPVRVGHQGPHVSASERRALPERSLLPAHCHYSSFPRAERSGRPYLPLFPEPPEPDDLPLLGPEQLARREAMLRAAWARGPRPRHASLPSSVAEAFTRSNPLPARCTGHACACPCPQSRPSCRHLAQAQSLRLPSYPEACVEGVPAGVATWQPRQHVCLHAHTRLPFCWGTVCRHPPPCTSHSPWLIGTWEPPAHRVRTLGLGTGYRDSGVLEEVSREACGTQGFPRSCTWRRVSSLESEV
Source text: (§2) NMDARs exist as multiple subtypes in the brain that are formed by the combination of two GluN1 and either two identical (diheteromers) or different (triheteromers) GluN2 (GluN2A-D) subunits.[1] We assessed the selectivity of trans-OptoNAM-3 (dark PSS) for the other NMDAR subtypes.
as §1
(§3) Expression of recombinant NMDA receptors was obtained by oocyte nuclear coinjection of 37 nL of a mixture of cDNAs (at 30 ng/μL) coding for GluN1–1a and various GluN2 subunits (ratio 1:1). The protocol in ref[43] was followed for the expression of GluN1/GluN2A/GluN2B triheteromers. […]

[3] = target: T3, GluN1/GluN2D (Rattus norvegicus, UniProt P35439+Q62645); experiment: TEVC on Xenopus oocytes, GluN1/GluN2D diheteromers; settings: 1 µM trans-OptoNAM-3 (dark); listed as trans-OptoNAM-3
T3 construct: expressed in transfected cells; host or cells: Xenopus laevis oocytes (nuclear cDNA injection)
T3 sequence (Q62645 28-1323, other chains not shown): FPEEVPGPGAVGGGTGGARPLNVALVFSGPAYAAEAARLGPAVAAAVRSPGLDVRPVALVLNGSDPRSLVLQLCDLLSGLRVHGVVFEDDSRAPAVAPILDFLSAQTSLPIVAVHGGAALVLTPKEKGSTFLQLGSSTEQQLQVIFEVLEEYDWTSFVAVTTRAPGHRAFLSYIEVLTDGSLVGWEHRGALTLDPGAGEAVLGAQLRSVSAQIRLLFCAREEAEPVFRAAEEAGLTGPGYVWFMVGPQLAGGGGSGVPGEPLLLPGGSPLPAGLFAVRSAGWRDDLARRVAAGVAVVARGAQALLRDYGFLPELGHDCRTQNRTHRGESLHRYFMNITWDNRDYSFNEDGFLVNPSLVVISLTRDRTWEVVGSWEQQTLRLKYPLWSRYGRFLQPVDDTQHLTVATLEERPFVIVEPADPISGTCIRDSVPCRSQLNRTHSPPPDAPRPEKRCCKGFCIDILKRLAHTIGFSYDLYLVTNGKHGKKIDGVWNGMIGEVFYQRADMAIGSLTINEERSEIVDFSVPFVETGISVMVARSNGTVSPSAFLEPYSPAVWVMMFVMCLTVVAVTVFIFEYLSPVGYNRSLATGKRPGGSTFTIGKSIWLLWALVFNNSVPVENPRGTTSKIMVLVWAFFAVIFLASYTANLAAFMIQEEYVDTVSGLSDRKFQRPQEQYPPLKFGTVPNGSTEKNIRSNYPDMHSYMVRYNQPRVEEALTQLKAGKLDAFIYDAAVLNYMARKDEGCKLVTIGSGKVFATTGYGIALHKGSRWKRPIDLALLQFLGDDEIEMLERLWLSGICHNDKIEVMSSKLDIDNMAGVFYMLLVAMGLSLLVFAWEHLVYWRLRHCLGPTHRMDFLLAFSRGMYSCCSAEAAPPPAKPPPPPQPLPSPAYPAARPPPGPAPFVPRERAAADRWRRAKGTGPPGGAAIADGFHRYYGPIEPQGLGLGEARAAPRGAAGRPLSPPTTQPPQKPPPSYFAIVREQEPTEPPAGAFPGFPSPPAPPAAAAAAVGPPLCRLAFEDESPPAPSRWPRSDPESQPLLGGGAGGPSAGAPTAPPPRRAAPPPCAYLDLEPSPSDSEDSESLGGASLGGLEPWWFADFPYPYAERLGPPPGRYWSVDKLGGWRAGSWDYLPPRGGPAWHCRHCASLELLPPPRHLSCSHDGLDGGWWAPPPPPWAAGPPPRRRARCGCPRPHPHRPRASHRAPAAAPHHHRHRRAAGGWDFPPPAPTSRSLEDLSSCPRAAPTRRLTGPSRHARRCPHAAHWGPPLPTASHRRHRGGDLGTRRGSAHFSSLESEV
Source text: as §2, §1, §3

## c1ccc(/N=N/c2ccc(CCNc3ccncc3)cc2)cc1 [OptoNAM-3, (E)-N-(4-(Phenyldiazenyl)phenethyl)pyridin-4-amine]
[1]; 10 µM OptoNAM-3 365 nm PSS, construct GluA1, read-out: Inhibition (%)
  inhibition at 10 µM: -6%
[1]; 10 µM OptoNAM-3 dark PSS (trans) as headed, second block
  Inhibition, individual values: -0.02846 and -0.1048 and -0.04691
[1]; 10 µM OptoNAM-3 dark PSS (trans), first block
  Inhibition, individual values: -0.02273 and -0.0986 and -0.1111
[1]; 10 µM OptoNAM-3 dark PSS (trans), construct GluA1, read-out: Inhibition (%)
  inhibition at 10 µM: -7.7%
[1]; 10 µM, dark PSS
  inhibition of GluA1 currents: no effect
[1]; 10 µM, dark PSS, read-out: inhibition of GluA1 currents
  inhibition at 10 µM: -7.4 ± 2.7%
[2]
  inhibition of GluN1/GluN2C: 3.2% ± 0.5%
[3]
  inhibition of GluN1/GluN2D: 2.2% ± 0.2%
